Reference: the CheMixHub viscosity set
± gives the uncertainty stated by the source.

Test: xn = mol fraction of the nth substance listed

`CCC#N` + CC(=O)N(C)C showed a viscosity (303.15 K, 101.33 kPa, x1 = 0.0953) of 0.8264 ± 0.0054 mPa·s, a viscosity (303.15 K, 101.33 kPa, x1 = 0.2) of 0.7648 ± 0.0051 mPa·s and a viscosity (303.15 K, 101.33 kPa, x1 = 0.3021) of 0.7092 ± 0.0048 mPa·s. The viscosity (303.15 K, 101.33 kPa, x1 = 0.3926) was 0.6613 ± 0.0046 mPa·s, the viscosity (303.15 K, 101.33 kPa, x1 = 0.4985) was 0.6082 ± 0.0044 mPa·s and the viscosity (303.15 K, 101.33 kPa, x1 = 0.595) was 0.5621 ± 0.0042 mPa·s. The viscosity (303.15 K, 101.33 kPa, x1 = 0.699) was 0.5131 ± 0.004 mPa·s, the viscosity (303.15 K, 101.33 kPa, x1 = 0.795) was 0.4684 ± 0.0038 mPa·s and the viscosity (303.15 K, 101.33 kPa, x1 = 0.9013) was 0.425 ± 0.0036 mPa·s.
For `CCOC(=O)OCC` + CC(=O)N(C)C, the viscosity (298.15 K, 101 kPa, x1 = 0.1371) was 0.925 ± 0.007 mPa·s, the viscosity (298.15 K, 101 kPa, x1 = 0.2045) was 0.912 ± 0.007 mPa·s and the viscosity (298.15 K, 101 kPa, x1 = 0.2821) was 0.896 ± 0.007 mPa·s. It also gave a viscosity (298.15 K, 101 kPa, x1 = 0.3603) of 0.881 ± 0.007 mPa·s, a viscosity (298.15 K, 101 kPa, x1 = 0.4462) of 0.865 ± 0.007 mPa·s and a viscosity (298.15 K, 101 kPa, x1 = 0.5333) of 0.849 ± 0.007 mPa·s. The viscosity (298.15 K, 101 kPa, x1 = 0.6265) was 0.831 ± 0.007 mPa·s, the viscosity (298.15 K, 101 kPa, x1 = 0.7265) was 0.811 ± 0.007 mPa·s and the viscosity (298.15 K, 101 kPa, x1 = 0.7839) was 0.8 ± 0.006 mPa·s. The viscosity (298.15 K, 101 kPa, x1 = 0.8296) was 0.79 ± 0.006 mPa·s and the viscosity (298.15 K, 101 kPa, x1 = 0.8887) was 0.778 ± 0.006 mPa·s.
Compound `CC(C)[C@@H]1CC[C@@H](C)C[C@H]1O` + CC(=O)O has a viscosity (293.15 K, 100 kPa, x1 = 0.5) of 11.3 ± 0.17 mPa·s, a viscosity (298.15 K, 100 kPa, x1 = 0.5) of 8.691 ± 0.13 mPa·s and a viscosity (303.15 K, 100 kPa, x1 = 0.5) of 6.904 ± 0.11 mPa·s. The viscosity (308.15 K, 100 kPa, x1 = 0.5) was 5.59 ± 0.086 mPa·s, the viscosity (313.15 K, 100 kPa, x1 = 0.5) was 4.564 ± 0.071 mPa·s and the viscosity (318.15 K, 100 kPa, x1 = 0.5) was 3.843 ± 0.06 mPa·s. It also gave a viscosity (323.15 K, 100 kPa, x1 = 0.5) of 3.251 ± 0.051 mPa·s.
In the case of `CCC#N` + CC(C)(C)O, the viscosity (298.15 K, 101 kPa, x2 = 0.0744) is reported as 0.4226 ± 0.0045 mPa·s, the viscosity (298.15 K, 101 kPa, x2 = 0.1541) is reported as 0.4462 ± 0.0047 mPa·s and the viscosity (298.15 K, 101 kPa, x2 = 0.2403) is reported as 0.4934 ± 0.0051 mPa·s. It also gave a viscosity (298.15 K, 101 kPa, x2 = 0.3272) of 0.5641 ± 0.0057 mPa·s, a viscosity (298.15 K, 101 kPa, x2 = 0.4258) of 0.6672 ± 0.0066 mPa·s and a viscosity (298.15 K, 101 kPa, x2 = 0.5242) of 0.8059 ± 0.0078 mPa·s. For the same compound, the viscosity (298.15 K, 101 kPa, x2 = 0.6146) was 1.024 ± 0.0097 mPa·s, the viscosity (298.15 K, 101 kPa, x2 = 0.7448) was 1.526 ± 0.014 mPa·s and the viscosity (298.15 K, 101 kPa, x2 = 0.8667) was 2.346 ± 0.021 mPa·s. It also gave a viscosity (303.15 K, 101 kPa, x2 = 0.0744) of 0.4138 ± 0.0044 mPa·s, a viscosity (303.15 K, 101 kPa, x2 = 0.1541) of 0.4431 ± 0.0047 mPa·s and a viscosity (303.15 K, 101 kPa, x2 = 0.2403) of 0.487 ± 0.005 mPa·s. For the same compound, the viscosity (303.15 K, 101 kPa, x2 = 0.3272) was 0.5397 ± 0.0055 mPa·s, the viscosity (303.15 K, 101 kPa, x2 = 0.4258) was 0.6276 ± 0.0062 mPa·s and the viscosity (303.15 K, 101 kPa, x2 = 0.5242) was 0.739 ± 0.0072 mPa·s. The viscosity (303.15 K, 101 kPa, x2 = 0.6146) was 0.9208 ± 0.0088 mPa·s, the viscosity (303.15 K, 101 kPa, x2 = 0.7448) was 1.34 ± 0.012 mPa·s and the viscosity (303.15 K, 101 kPa, x2 = 0.8667) was 2.022 ± 0.018 mPa·s. The viscosity (308.15 K, 101 kPa, x2 = 0.0744) was 0.3997 ± 0.0043 mPa·s, the viscosity (308.15 K, 101 kPa, x2 = 0.1541) was 0.4317 ± 0.0046 mPa·s and the viscosity (308.15 K, 101 kPa, x2 = 0.2403) was 0.4754 ± 0.0049 mPa·s. For the same compound, the viscosity (308.15 K, 101 kPa, x2 = 0.3272) was 0.5219 ± 0.0053 mPa·s, the viscosity (308.15 K, 101 kPa, x2 = 0.4258) was 0.5918 ± 0.0059 mPa·s and the viscosity (308.15 K, 101 kPa, x2 = 0.5242) was 0.6821 ± 0.0067 mPa·s. It also gave a viscosity (308.15 K, 101 kPa, x2 = 0.6146) of 0.8394 ± 0.0081 mPa·s, a viscosity (308.15 K, 101 kPa, x2 = 0.7448) of 1.186 ± 0.011 mPa·s and a viscosity (308.15 K, 101 kPa, x2 = 0.8667) of 1.741 ± 0.016 mPa·s.
In the case of `Cc1ccccc1C` + CC(C)(C)O, the viscosity (308.15 K, 101 kPa, x2 = 0.0632) is reported as 0.669 ± 0.014 mPa·s, the viscosity (308.15 K, 101 kPa, x2 = 0.1246) is reported as 0.679 ± 0.014 mPa·s and the viscosity (308.15 K, 101 kPa, x2 = 0.204) is reported as 0.677 ± 0.014 mPa·s. The viscosity (308.15 K, 101 kPa, x2 = 0.2992) was 0.674 ± 0.014 mPa·s, the viscosity (308.15 K, 101 kPa, x2 = 0.3725) was 0.731 ± 0.015 mPa·s and the viscosity (308.15 K, 101 kPa, x2 = 0.4258) was 0.777 ± 0.016 mPa·s. The viscosity (308.15 K, 101 kPa, x2 = 0.4948) was 0.814 ± 0.017 mPa·s, the viscosity (308.15 K, 101 kPa, x2 = 0.5942) was 0.908 ± 0.019 mPa·s and the viscosity (308.15 K, 101 kPa, x2 = 0.6887) was 1.028 ± 0.021 mPa·s. For the same compound, the viscosity (308.15 K, 101 kPa, x2 = 0.7935) was 1.376 ± 0.029 mPa·s and the viscosity (308.15 K, 101 kPa, x2 = 0.9065) was 1.962 ± 0.041 mPa·s.
In the case of `OCCOCCOCCO` + CC(C)=O, the viscosity (298.1 K, 101 kPa, x1 = 0.2) is reported as 1.038 ± 0.075 mPa·s, the viscosity (298.1 K, 101 kPa, x1 = 0.4) is reported as 2.75 ± 0.51 mPa·s and the viscosity (298.1 K, 101 kPa, x1 = 0.5) is reported as 4.48 ± 0.79 mPa·s. It also gave a viscosity (298.1 K, 101 kPa, x1 = 0.6) of 7.168 ± 1.1 mPa·s and a viscosity (298.1 K, 101 kPa, x1 = 0.8) of 17.04 ± 1.8 mPa·s.
Work on `c1ccc(Oc2ccccc2)cc1` + CC(C)=O yielded a viscosity (298.15 K, 101 kPa, x2 = 0.4843) of 1.339 ± 0.035 mPa·s, a viscosity (298.15 K, 101 kPa, x2 = 0.7306) of 0.714 ± 0.019 mPa·s and a viscosity (298.15 K, 101 kPa, x2 = 0.894) of 0.439 ± 0.012 mPa·s.
With `Cc1ccccc1C` + CC(C)CC(C)(C)C the viscosity (308.15 K, 101 kPa, x2 = 0.1337) was 0.6095 ± 0.0062 mPa·s, the viscosity (308.15 K, 101 kPa, x2 = 0.2492) was 0.5663 ± 0.0058 mPa·s and the viscosity (308.15 K, 101 kPa, x2 = 0.3373) was 0.539 ± 0.0056 mPa·s. It also gave a viscosity (308.15 K, 101 kPa, x2 = 0.4352) of 0.5141 ± 0.0054 mPa·s, a viscosity (308.15 K, 101 kPa, x2 = 0.5589) of 0.4878 ± 0.0051 mPa·s and a viscosity (308.15 K, 101 kPa, x2 = 0.6421) of 0.4734 ± 0.005 mPa·s. It also gave a viscosity (308.15 K, 101 kPa, x2 = 0.7365) of 0.4602 ± 0.0049 mPa·s, a viscosity (308.15 K, 101 kPa, x2 = 0.8167) of 0.4525 ± 0.0048 mPa·s and a viscosity (308.15 K, 101 kPa, x2 = 0.917) of 0.4417 ± 0.0047 mPa·s.
Work on `Cc1ccccc1C` + CC(C)CO yielded a viscosity (308.15 K, 101 kPa, x2 = 0.0649) of 0.669 ± 0.014 mPa·s, a viscosity (308.15 K, 101 kPa, x2 = 0.1278) of 0.681 ± 0.014 mPa·s and a viscosity (308.15 K, 101 kPa, x2 = 0.2187) of 0.684 ± 0.014 mPa·s. The viscosity (308.15 K, 101 kPa, x2 = 0.3335) was 0.77 ± 0.016 mPa·s, the viscosity (308.15 K, 101 kPa, x2 = 0.4418) was 0.851 ± 0.018 mPa·s and the viscosity (308.15 K, 101 kPa, x2 = 0.5688) was 0.986 ± 0.021 mPa·s. For the same compound, the viscosity (308.15 K, 101 kPa, x2 = 0.6291) was 1.064 ± 0.022 mPa·s, the viscosity (308.15 K, 101 kPa, x2 = 0.7214) was 1.215 ± 0.025 mPa·s and the viscosity (308.15 K, 101 kPa, x2 = 0.8196) was 1.486 ± 0.031 mPa·s. For the same compound, the viscosity (308.15 K, 101 kPa, x2 = 0.9023) was 1.835 ± 0.038 mPa·s and the viscosity (308.15 K, 101 kPa, x2 = 0.9616) was 2.245 ± 0.047 mPa·s.
